Results reported in patent US20100210467A1, “AGENT FOR IMPROVING SUGARCANE BRIX AND METHOD OF PROMOTING SUGARCANE RIPENING USING THE SAME” (Kumiai Chemical Industry Co., Ltd., priority 2007, published 2010).

Tested on: sugarcane
Assay: Example 6: sugar content of sugarcane stem juice after bispyribac-sodium + prohexadione-calcium spraying, field test in Brazil
Type: in vivo
Conditions: 200 g/ha
Procedure: In accordance with “NORMAS DE AVALIAçÃO DA […] DA CANA-DE-AçÚCAR” used in Brazilian sugar refining plants as Standard for quality evaluation of sugarcane, the analysis on the sugar content in the squeezed juice of sugarcane stem was carried out for Brix value, sugar content in sugarcane (PC), and total sugar amount recoverable from sugarcane stem (ATR) as follows.
Brix was measured according to a digital refractometer. PC was calculated according to the equation (1). ATR was calculated according to the equation (5).
At the time the Brix value of sugarcane grown in a sugarcane cultivated area in Brazil (an average Brix value in the harvesttime being 20%) became 80% of the aforesaid average Brix value, a bispyribac-sodium formulation (a commercially available product, a tradename, “NOMINEE 400SC”) and a prohexadione-calcium formulation (a tradename, “VIVIFUL”) were admixed together and diluted with water so that the amount of the effective ingredient in 105 liters of each spraying liquid could be equal to the used amount shown in Table 10, and the liquid was sprayed above the plant by the aid of a CO2-pressurized back pack sprayer to the test area at a rate of 105 liters per hectare.
In a control area, a known trinexapac-ethyl formulation (a commercially available product, a tradename “MODDUS”) was similarly sprayed.
Next, 20 individual sugarcanes were cut from each area on the initial day of spraying, after 15 days of spraying, after 30 days of spraying and after 45 days of spraying, and thereafter the stems were squeezed and sugar was recovered from the juice to obtain the yield. Each yield was compared with the yield of the initial day of spraying and the rate of increase (%) was calculated. The analysis on the sugar content in the squeezed juice of sugarcane stems was carried out similarly as in the case of Example 1.

Compound: CCOC(=O)C1CC(=O)C(=C(O)C2CC2)C(=O)C1 (stereo not drawn) [Trinexapac-ethyl, trinexapac-ethyl]
- ATR increased rate from the initial day of spraying (after 15 days of spraying): 10.3%
- Brix increased rate from the initial day of spraying (after 15 days of spraying): 8.0%
- Concentration of soluble solid matter, Brix (after 15 days of spraying): 17.5%
- Total sugar amount recoverable from 1 kg of stem, ATR (after 15 days of spraying): 125.3 g
- ATR increased rate from the initial day of spraying (after 30 days of spraying): 18.0%
- Brix increased rate from the initial day of spraying (after 30 days of spraying): 15.7%
- Concentration of soluble solid matter, Brix (after 30 days of spraying): 18.8%
- Total sugar amount recoverable from 1 kg of stem, ATR (after 30 days of spraying): 134.0 g
- ATR increased rate from the initial day of spraying (after 45 days of spraying): 30.8%
- Brix increased rate from the initial day of spraying (after 45 days of spraying): 24.7%
- Concentration of soluble solid matter, Brix (after 45 days of spraying): 20.2%
- Total sugar amount recoverable from 1 kg of stem, ATR (after 45 days of spraying): 148.5 g
